Assay results from US5358950A, “Triazolopyrimidine derivatives which are angiotensin II receptor antagonists” (Laboratoires UPSA, priority 1991, dated 1994).

Test system: adrenal angiotensin II receptors
Assay: Displacement of radiolabelled ligand [^125 I]-SIAII specifically bound to rat adrenal angiotensin II receptors
Type: binding
Settings: rat adrenal homogenate, 60 min at 25° C.
Description: The affinity of the products of the examples for angiotensin II receptors is assessed by a technique of displacement of a radiolabelled ligand specifically bound to the adrenal angiotensin II receptors in the rat.
An aliquot of a rat adrenal homogenate is incubated in the presence of a single concentration of [^125 I]-SIAII(Sar^1 Tyr^4, Ile^8 -angiotensin II) which is an angiotensin II receptor antagonist, and two concentrations of competitive agents ([…]) for 60 min at 25° C.
The reaction is stopped by adding buffer, followed by rapid filtration through glass-paper filters. The non-specific binding is determined in the presence of angiotensin II.
The results are expressed, for the concentrations tested, as a percentage displacement of the radiolabelled ligand specifically bound to the adrenal angiotensin II receptors.

% displacement of the labelled ligand (1E-5M, 10 µM) [%]	% displacement of the labelled ligand (1E-7M, 0.1 µM) [%]	SMILES
67	33	CCCc1nc(C)n2c(S)nnc2c1Cc1ccc(-c2ccccc2-c2nnn[nH]2)cc1 [Example 68, 7-n-Propyl-5-methyl-3-mercapto-8-{[2'-(5-tetrazolyl)-4-biphenylyl]methyl}-1,2,4-triazolo[4,3-c]pyrimidine]
63	48	CCc1nc(C)n2nc(C)nc2c1Cc1ccc(-c2ccccc2-c2nn[nH]n2)cc1 [Example 90, 7-Ethyl-2 , 5-dimethyl-8-{[2 '-(5-tetrazolyl)-4-biphenylyl]methyl}-i, 2,4-triazolo[1,5-c]pyrimidine]
60	38	CCc1nc(C)n2[nH]c(=O)nc2c1Cc1ccc(-c2ccccc2-c2nnn[nH]2)cc1 [Example 97, 7-Ethyl-5-methyl-8-{[2'(5-tetrazolyl)-4-biphenylyl]methyl}-1,2,4-triazolo[1,5-c]pyrimidin-2(3H)-one]
71	58	CCCc1nc(C)n2nc(N)nc2c1Cc1ccc(-c2ccccc2-c2nnn[nH]2)cc1 [Example 107, 7-n-Propyl-5-methyl-2-amino-8-{[2'-(5-tetrazolyl)-4-biphenylyl]methyl}-1,2,4-triazolo[1,5-c]pyrimidine]
67	46	CCCc1nc(C)n2nc(C(=O)OCC)nc2c1Cc1ccc(-c2ccccc2-c2nnn[nH]2)cc1 [Example 109, Ethyl 7-n-propyl-5-methyl-8-{[2'-(5-tetrazolyl)-4-biphenylyl]methyl}-1,2,4-triazolo[1,5-c]pyrimidine-2-carboxylate]
66	48	CCCc1nc(C)n2c(=O)[nH]nc2c1Cc1ccc(-c2ccccc2-c2nnn[nH]2)cc1 [Example 19, 7-n-Propyl-5-methyl-8-{[2'-(5-tetrazolyl)-4-biphenylyl]methyl}-1,2,4-triazolo[4,3-c]pyrimidin-3(2H)-one]
74	56	CCCc1nc(C)n2nc(CC(=O)OCC)nc2c1Cc1ccc(-c2ccccc2-c2nnn[nH]2)cc1 [Example 146, Ethyl [7-n-propyl-5-methyl-8-{[2'-(5-tetrazolyl)-4-biphenylyl]methyl}-1,2,4-triazolo[1,5-c]pyrimidin-2-yl]acetate]
67	52	CCCc1nc(C)n2nc(CC)nc2c1Cc1ccc(-c2ccccc2-c2nnn[nH]2)cc1 [Example 78, 7-n-Propyl-5-methyl-8-{[2 '(5-tetrazolyl)-4-biphenylyl]methyl}-2-ethyl-1,2,4-triazolo[1,5-c]pyrimidine]
61	17	CCCc1nc(CC)n2[nH]c(=O)nc2c1Cc1ccc(-c2ccccc2-c2nnn[nH]2)cc1 [Example 138, 7-n-Propyl-5-ethyl-8-{[2'-(5-tetrazolyl)-4-biphenylyl]methyl}-1,2,4-triazolo[1,5-c]pyrimidin-2(3H)-one]
69	57	CCCc1nc(C)n2nc(COC)nc2c1Cc1ccc(-c2ccccc2-c2nnn[nH]2)cc1 [Example 152, 7-n-Propyl-5-methyl-2-methoxymethyl-8-{[2'-(5-tetrazolyl)-4-biphenylyl]methyl}-1,2,4-triazolo[1,5-c]pyrimidine]
65	43	CCCCc1nc(C)n2c(=O)[nH]nc2c1Cc1ccc(-c2ccccc2-c2nnn[nH]2)cc1 [Example 36, 7-n-Butyl-5-methyl-8-{[2'-(5-tetrazolyl)-4-biphenylyl]methyl}-1,2,4-triazolo[4,3-c]pyrimidin-3(2H)-one]
60	45	CCCc1nc(C)n2[nH]c(=O)nc2c1Cc1ccc(-c2ccccc2-c2nnn[nH]2)cc1 [Example 20, 7-n-Propyl-5-methyl-8-{[2'-(5-tetrazolyl)-4-biphenylyl]methyl}-1,2,4-triazolo[1,5-c]pyrimidin-2(3H)-one]
73	60	CCCc1nc(C)n2ncnc2c1Cc1ccc(-c2ccccc2-c2nnn[nH]2)cc1 [Example 71, 7-n-propyl-5-methyl-8-{[2'-(5-tetrazolyl)-4-biphenylyl]methyl}-1,2,4-triazolo[1,5-c]pyrimidine]
74	59	CCCc1nc(C)n2nc(NC)nc2c1Cc1ccc(-c2ccccc2-c2nnn[nH]2)cc1 [Example 80, 7-n-Propyl-5-methyl-2-methylamino-8-{[2'-(5-tetrazolyl)-4-biphenylyl]methyl}-1,2,4-triazolo [1,5-c]pyrimidine]
75	46	CCCc1nc(C)n2nc(S)nc2c1Cc1ccc(-c2ccccc2-c2nnn[nH]2)cc1 [Example 42, 7-n-propyl-5-methyl-2-mercapto-8-{[2'-(5-tetrazolyl)-4-biphenylyl]methyl}-1,2,4-triazolo[1,5-c]pyrimidine]
69	54	CCCc1nc(C)n2nc(C)nc2c1Cc1ccc(-c2ccccc2-c2nnn[nH]2)cc1 [Example 74, 7-n-Propyl-2,5-dimethyl-8-{[2'-(5-tetrazolyl)-4-biphenylyl}methyl]-1,2,4-triazolo[1,5-c]pyrimidine]
68	54	CCCc1nc(C)n2c(=O)n(CCO)nc2c1Cc1ccc(-c2ccccc2-c2nnn[nH]2)cc1 [Example 25, 2-[7-n-Propyl-5-methyl-3-oxo-8-{[2'-(5-tetrazolyl)-4-biphenylyl]methyl}-2,3-dihydro-1,2,4-triazolo[4,3-c]pyrimidin-2-yl]ethanol]
60	41	CCCCc1nc(C)n2[nH]c(=O)nc2c1Cc1ccc(-c2ccccc2-c2nnn[nH]2)cc1 [Example 112, 7-n-Butyl-5-methyl-8-{[2'(5-tetrazolyl)-4-biphenylyl]methyl}-1,2,4-triazolo[1,5-c]pyrimidin-2(3H)-one]
